The record followed here is US11325889B2, “Substituted 3-((3-aminophenyl)amino)piperidine-2,6-dione compounds, compositions thereof, and methods of treatment therewith” (Celgene Corporation, priority 2018, dated 2022).

A value given as a limit tells only on which side of the number the result lay.

The target in the experiment is T1, AR protein in VCaP cells (Homo sapiens, UniProt P10275).
T1 construct: endogenous in cells; host or cells: VCaP cells
T1 sequence (P10275 1-920): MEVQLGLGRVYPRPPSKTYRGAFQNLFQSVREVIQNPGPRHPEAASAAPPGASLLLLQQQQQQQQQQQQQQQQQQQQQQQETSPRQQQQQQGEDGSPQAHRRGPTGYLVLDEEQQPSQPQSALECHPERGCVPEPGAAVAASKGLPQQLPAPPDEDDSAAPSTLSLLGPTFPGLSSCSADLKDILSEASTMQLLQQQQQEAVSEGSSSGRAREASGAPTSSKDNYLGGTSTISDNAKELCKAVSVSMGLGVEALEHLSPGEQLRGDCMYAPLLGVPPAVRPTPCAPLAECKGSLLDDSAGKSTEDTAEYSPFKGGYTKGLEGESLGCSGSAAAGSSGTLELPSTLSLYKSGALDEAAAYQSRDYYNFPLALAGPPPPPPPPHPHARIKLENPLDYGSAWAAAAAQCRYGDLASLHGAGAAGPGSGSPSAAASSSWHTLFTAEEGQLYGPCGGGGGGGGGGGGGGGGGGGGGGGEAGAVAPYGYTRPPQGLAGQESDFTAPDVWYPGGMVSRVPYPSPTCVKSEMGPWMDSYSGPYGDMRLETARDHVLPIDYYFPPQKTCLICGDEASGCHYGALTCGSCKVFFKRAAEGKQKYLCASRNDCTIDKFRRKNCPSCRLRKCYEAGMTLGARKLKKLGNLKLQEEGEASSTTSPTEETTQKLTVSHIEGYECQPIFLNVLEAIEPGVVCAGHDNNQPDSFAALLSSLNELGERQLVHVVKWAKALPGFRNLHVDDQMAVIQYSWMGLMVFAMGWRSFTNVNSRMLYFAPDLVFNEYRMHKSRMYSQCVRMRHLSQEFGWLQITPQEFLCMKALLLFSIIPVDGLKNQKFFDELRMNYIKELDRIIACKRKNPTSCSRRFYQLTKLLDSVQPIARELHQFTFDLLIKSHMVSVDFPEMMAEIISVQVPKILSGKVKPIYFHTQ
Description: VCAP AR Degradation Assay (AR ELISA, 24 h). It counts as cell-based. The conditions noted are these: for Y (lowest measured AR level normalized to DMSO control): AR degradation efficiency; for DC50: concentration of compound when AR level = 50% of DMSO control, read-out: DC50. An outline of the steps:
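VCaP cells in DMEM with 8% FBS exposed for 24 h at 37° C to a 10-point, 1:3 series (final top concentration […]; 0.1% DMSO control). Lysate AR measured by sandwich ELISA and normalized to DMSO as percent of control. DC50, EC50 and lowest AR level (Y) from four-parameter logistic fit.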
In general terms: ELISA stands for enzyme-linked immunosorbent assay.

As for `CCc1cc(N2C(=S)N(c3cnc(C#N)c(C(F)(F)F)c3)C(=O)C2(C)C)ccc1OCCC1CCN([C@@H](C)C(=O)Nc2cc(C#N)cc(NC3CCC(=O)NC3=O)c2)CC1` (stereo partly drawn) [Cmpd 37, (2S)-N-(3-cyano-5-(2,6-dioxopiperidin-3-ylamino)phenyl)-2-(4-(2-(4-(3-(6-cyano-5-(trifluoromethyl)pyridin-3-yl)-5,5-dimethyl-4-oxo-2-thioxoimidazolidin-1-yl)-2-ethylphenoxy)ethyl)piperidin-1-yl)propanamide], the “Y (lowest measured AR level normalized to DMSO control)” value is listed as “* (0<Y<=25%)” and the 50% degradation concentration (DC50) is below 100 nM.

In the case of `CCc1cc(N2C(=S)N(c3cnc(C#N)c(C(F)(F)F)c3)C(=O)C2(C)C)ccc1OCCC1CCN([C@H](C)C(=O)Nc2cc(C#N)cc(NC3CCC(=O)NC3=O)c2)CC1` (stereo partly drawn) [Cmpd 38, (2R)-N-(3-cyano-5-(2,6-dioxopiperidin-3-ylamino)phenyl)-2-(4-(2-(4-(3-(6-cyano-5-(trifluoromethyl)pyridin-3-yl)-5,5-dimethyl-4-oxo-2-thioxoimidazolidin-1-yl)-2-ethylphenoxy)ethyl)piperidin-1-yl)propanamide], the “Y (lowest measured AR level normalized to DMSO control)” value was “** (25%<Y<=35%)” and the half-maximal degradation concentration (DC50) is below 100 nM.

In the case of `CCc1cc(N2C(=S)N(c3cnc(C#N)c(C(F)(F)F)c3)C(=O)C2(C)C)ccc1OCCC1CCN(CC(=O)Nc2cc(C#N)cc(NC3CCC(=O)NC3=O)c2)CC1` (stereo not shown) [Cmpd 39, N-(3-cyano-5-(2,6-dioxopiperidin-3-ylamino)phenyl)-2-(4-(2-(4-(3-(6-cyano-5-(trifluoromethyl)pyridin-3-yl)-5,5-dimethyl-4-oxo-2-thioxoimidazolidin-1-yl)-2-ethylphenoxy)ethyl)piperidin-1-yl)acetamide], the “Y (lowest measured AR level normalized to DMSO control)” value is “** (25%<Y<=35%)” and the DC50 is below 100 nM.

Regarding `CCc1cc(N2C(=S)N(c3ccc(C#N)c(C(F)(F)F)c3)C(=O)C2(C)C)ccc1OCCC1CCN(CC(=O)Nc2cc(C#N)cc(NC3CCC(=O)NC3=O)c2)CC1` (stereo not shown) [Cmpd 40, 2-(4-(2-(4-(3-(4-cyano-3-(trifluoromethyl)phenyl)-5,5-dimethyl-4-oxo-2-thioxoimidazolidin-1-yl)-2-ethylphenoxy)ethyl)piperidin-1-yl)-N-(3-cyano-5-(2,6-dioxopiperidin-3-ylamino)phenyl)acetamide], the “Y (lowest measured AR level normalized to DMSO control)” value is “** (25%<Y<=35%)” and the DC50 fell in the range of 100 to 500 nM.

As for `CCc1cc(N2C(=S)N(c3ccc(C#N)c(C(F)(F)F)c3)C(=O)C2(C)C)ccc1OCCC1CCN([C@@H](C)C(=O)Nc2cccc(NC3CCC(=O)NC3=O)c2)CC1` (stereo partly drawn) [Cmpd 41, (2S)-2-(4-(2-(4-(3-(4-cyano-3-(trifluoromethyl)phenyl)-5,5-dimethyl-4-oxo-2-thioxoimidazolidin-1-yl)-2-ethylphenoxy)ethyl)piperidin-1-yl)-N-(3-(2,6-dioxopiperidin-3-ylamino)phenyl)propanamide], the “Y (lowest measured AR level normalized to DMSO control)” value is listed as “* (0<Y<=25%)” and the DC50 is below 100 nM.

Consider `CCc1cc(N2C(=S)N(c3ccc(C#N)c(C(F)(F)F)c3)C(=O)C2(C)C)ccc1OCCC1CCN([C@H](C)C(=O)Nc2cccc(NC3CCC(=O)NC3=O)c2)CC1` (stereo partly drawn) [Cmpd 42, (2R)-2-(4-(2-(4-(3-(4-cyano-3-(trifluoromethyl)phenyl)-5,5-dimethyl-4-oxo-2-thioxoimidazolidin-1-yl)-2-ethylphenoxy)ethyl)piperidin-1-yl)-N-(3-(2,6-dioxopiperidin-3-ylamino)phenyl)propanamide], for which the “Y (lowest measured AR level normalized to DMSO control)” value is recorded as “** (25%<Y<=35%)” and the DC50 is 100 to 500 nM.

`CCc1cc(N2C(=S)N(c3ccc(C#N)c(C(F)(F)F)c3)C(=O)C23CCC3)ccc1OCCC1CCN(CC(=O)Nc2cccc(NC3CCC(=O)NC3=O)c2)CC1` (stereo not shown) [Cmpd 43, 2-(4-(2-(4-(7-(4-cyano-3-(trifluoromethyl)phenyl)-8-oxo-6-thioxo-5,7-diazaspiro[3.4]octan-5-yl)-2-ethylphenoxy)ethyl)piperidin-1-yl)-N-(3-(2,6-dioxopiperidin-3-ylamino)phenyl)acetamide]: the “Y (lowest measured AR level normalized to DMSO control)” value is “* (0<Y<=25%)” and the 50% degradation concentration (DC50) was below 100 nM.

For the compound `CCc1cc(N2C(=S)N(c3cnc(C#N)c(C(F)(F)F)c3)C(=O)C2(C)C)ccc1OCCC1CCN([C@@H](C)C(=O)Nc2cccc(N[C@@H]3CCC(=O)NC3=O)c2)CC1` [Cmpd 44, (S)-2-(4-(2-(4-(3-(6-cyano-5-(trifluoromethyl)pyridin-3-yl)-5,5-dimethyl-4-oxo-2-thioxoimidazolidin-1-yl)-2-ethylphenoxy)ethyl)piperidin-1-yl)-N-(3-((R)-2,6-dioxopiperidin-3-ylamino)phenyl)propanamide], the “Y (lowest measured AR level normalized to DMSO control)” value is “* (0<Y<=25%)” and the DC50 is below 100 nM.

For the compound `CCc1cc(N2C(=S)N(c3cnc(C#N)c(C(F)(F)F)c3)C(=O)C2(C)C)ccc1OCCC1CCN([C@H](C)C(=O)Nc2cccc(N[C@@H]3CCC(=O)NC3=O)c2)CC1` [Cmpd 45, (R)-2-(4-(2-(4-(3-(6-cyano-5-(trifluoromethyl)pyridin-3-yl)-5,5-dimethyl-4-oxo-2-thioxoimidazolidin-1-yl)-2-ethylphenoxy)ethyl)piperidin-1-yl)-N-(3-((R)-2,6-dioxopiperidin-3-ylamino)phenyl)propanamide], the “Y (lowest measured AR level normalized to DMSO control)” value is on record as “* (0<Y<=25%)” and the DC50 is below 100 nM.

Consider `CCc1cc(N2C(=S)N(c3cnc(C#N)c(C(F)(F)F)c3)C(=O)C2(C)C)ccc1OCCC1CCN([C@@H](C)C(=O)Nc2cccc(N[C@H]3CCC(=O)NC3=O)c2)CC1` [Cmpd 46, (S)-2-(4-(2-(4-(3-(6-cyano-5-(trifluoromethyl)pyridin-3-yl)-5,5-dimethyl-4-oxo-2-thioxoimidazolidin-1-yl)-2-ethylphenoxy)ethyl)piperidin-1-yl)-N-(3-((S)-2,6-dioxopiperidin-3-ylamino)phenyl)propanamide], for which the “Y (lowest measured AR level normalized to DMSO control)” value is given as “* (0<Y<=25%)” and the DC50 was below 100 nM.

As for `CCc1cc(N2C(=S)N(c3cnc(C#N)c(C(F)(F)F)c3)C(=O)C2(C)C)ccc1OCCC1CCN([C@H](C)C(=O)Nc2cccc(N[C@H]3CCC(=O)NC3=O)c2)CC1` [Cmpd 47, (R)-2-(4-(2-(4-(3-(6-cyano-5-(trifluoromethyl)pyridin-3-yl)-5,5-dimethyl-4-oxo-2-thioxoimidazolidin-1-yl)-2-ethylphenoxy)ethyl)piperidin-1-yl)-N-(3-((S)-2,6-dioxopiperidin-3-ylamino)phenyl)propanamide], the “Y (lowest measured AR level normalized to DMSO control)” value is listed as “* (0<Y<=25%)” and the 50% degradation concentration (DC50) is below 100 nM.

In the case of `CC1(C)C(=O)N(c2ccc(C#N)c(C(F)(F)F)c2)C(=S)N1c1ccc(OCCC2CCN(CC(=O)Nc3cccc(NC4CCC(=O)NC4=O)c3)CC2)c(CCF)c1` (stereo not shown) [Cmpd 48, 2-(4-(2-(4-(3-(4-cyano-3-(trifluoromethyl)phenyl)-5,5-dimethyl-4-oxo-2-thioxoimidazolidin-1-yl)-2-(2-fluoroethyl)phenoxy)ethyl)piperidin-1-yl)-N-(3-(2,6-dioxopiperidin-3-ylamino)phenyl)acetamide], the “Y (lowest measured AR level normalized to DMSO control)” value is given as “* (0<Y<=25%)” and the DC50 was below 100 nM.

As for `CCc1cc(N2C(=S)N(c3ccc(C#N)c(C(F)(F)F)c3)C(=O)C2(C)C)ccc1OC1CCN(CC(=O)Nc2cc(Cl)cc(NC3CCC(=O)NC3=O)c2)CC1` (stereo not shown) [Cmpd 49, N-(3-chloro-5-(2,6-dioxopiperidin-3-ylamino)phenyl)-2-(4-(4-(3-(4-cyano-3-(trifluoromethyl)phenyl)-5,5-dimethyl-4-oxo-2-thioxoimidazolidin-1-yl)-2-ethylphenoxy)piperidin-1-yl)acetamide], the “Y (lowest measured AR level normalized to DMSO control)” value is on record as “** (25%<Y<=35%)” and the DC50 lay in the range of 100 to 500 nM.

For the compound `CCc1cc(N2C(=S)N(c3ccc(C#N)c(C(F)(F)F)c3)C(=O)C2(C)C)ccc1OC1CCN(CC(=O)Nc2cccc(NC3CCC(=O)NC3=O)c2)CC1` (stereo not shown) [Cmpd 50, 2-(4-(4-(3-(4-cyano-3-(trifluoromethyl)phenyl)-5,5-dimethyl-4-oxo-2-thioxoimidazolidin-1-yl)-2-ethylphenoxy)piperidin-1-yl)-N-(3-(2,6-dioxopiperidin-3-ylamino)phenyl)acetamide], the “Y (lowest measured AR level normalized to DMSO control)” value is recorded as “** (25%<Y<=35%)” and the 50% degradation concentration (DC50) lay in the range of 100 to 500 nM.

By DC50 is commonly meant the midpoint of the concentration-degradation curve.
